Data published in patent US20230158025A1 (UNIVERSITY OF UTAH RESEARCH FOUNDATION, priority 2020, published 2023).
Read-outs that look alike come from different tables or passages of the source.

How the values were obtained:
recombinant human GALK1 = recombinant human GALK1 (Homo sapiens, UniProt P51570); assay: hGALK1 biochemical activity assay (Kinase-Glo Plus, ATP depletion)
Outline: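 Recombinant human or mouse GALK1 (5 nM, with 100 μM galactose, in the added enzyme solution) was run with ATP (35 μM in the substrate solution) in HEPES pH 8.0 buffer. Compounds were tested at 11 1/3-step concentrations from 57.4 μM to 0.97 nM. After 1 h at room temperature, remaining ATP was read by Kinase-Glo Plus luminescence.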

recombinant mouse GALK1 = recombinant mouse GALK1 (Mus musculus, UniProt Q9R0N0); assay: mGALK1 biochemical activity assay (Kinase-Glo Plus, ATP depletion)
Sequence of recombinant mouse GALK1 (Q9R0N0 whole entry): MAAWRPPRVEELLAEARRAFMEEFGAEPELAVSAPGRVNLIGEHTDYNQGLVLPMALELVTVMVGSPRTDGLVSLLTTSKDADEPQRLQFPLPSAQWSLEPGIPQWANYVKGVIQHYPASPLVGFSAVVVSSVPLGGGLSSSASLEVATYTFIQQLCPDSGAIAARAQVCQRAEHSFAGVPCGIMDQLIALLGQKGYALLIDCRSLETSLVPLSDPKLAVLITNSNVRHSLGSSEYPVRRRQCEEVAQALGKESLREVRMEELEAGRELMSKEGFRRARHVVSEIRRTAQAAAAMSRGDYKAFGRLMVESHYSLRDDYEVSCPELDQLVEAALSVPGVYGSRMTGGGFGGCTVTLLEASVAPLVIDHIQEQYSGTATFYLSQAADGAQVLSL
Outline: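 Recombinant GALK1 (5 nM) with 100 μM galactose; GALK1 turnover read as ATP depletion by Kinase-Glo Plus luminescence. Reaction ran 1 h at room temperature before detection reagent was added.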

[1] = aqueous kinetic solubility
[2] = rat microsomal stability (RLM); settings: microsomal half-life
[3] = Tables 2-15, 35 μM ATP, 100 μM galactose, 1 h, bracketed figure after some values (e.g. −1.2) is undefined and not reported, read-out: hGALK IC50
[4] = recombinant human GALK1, Kinase-Glo Plus ATP depletion, read-out: hGALK
[5] = Tables 2-15, 35 μM ATP, 100 μM galactose, 1 h, bracketed figure after some values is undefined and not reported, read-out: mGALK IC50
[6] = recombinant mouse GALK1, Kinase-Glo Plus ATP depletion, read-out: mGALK

Sequence of recombinant human GALK1 (P51570 whole entry): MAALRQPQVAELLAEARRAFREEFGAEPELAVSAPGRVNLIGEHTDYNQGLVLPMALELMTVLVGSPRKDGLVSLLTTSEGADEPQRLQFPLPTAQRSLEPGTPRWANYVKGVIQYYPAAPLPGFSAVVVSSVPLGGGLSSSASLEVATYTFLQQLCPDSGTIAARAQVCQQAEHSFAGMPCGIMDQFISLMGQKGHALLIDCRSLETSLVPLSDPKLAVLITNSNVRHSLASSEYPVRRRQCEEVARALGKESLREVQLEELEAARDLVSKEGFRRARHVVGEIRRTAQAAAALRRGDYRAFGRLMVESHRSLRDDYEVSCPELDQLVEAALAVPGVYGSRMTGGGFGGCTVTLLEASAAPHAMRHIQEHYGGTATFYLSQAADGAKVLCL

IC50 (recombinant human GALK1; [3])	IC50 (recombinant human GALK1; [4])	IC50 (recombinant mouse GALK1; [5])	IC50 (recombinant mouse GALK1; [6])	Perm. (1 × 10^−6 cm/sec) (PAMPA permeability)	Sol. [1]	Metab. Stabil. (m) [2]	Structure (SMILES)
15 µM	0.15 µM	1.37 µM	1.37 µM	<1 1 × 10^−6 cm/sec	>79 µg/mL	>30 m	CC1=C(C(=O)Nc2cc(C(=O)O)ccn2)[C@H](c2ccc(C)cc2Cl)N=C(Nc2nc3ccc(F)cc3o2)N1 [Compound 55, (R)-2-(4-(2-chloro-4-methylphenyl)-2-((6-fluorobenzo[d]oxazol-2-yl)amino)-6-methyl-1,4-dihydropyrimidine-5-carboxamido)isonicotinic acid]
1.93 µM	1.93 µM	6.85 µM	6.85 µM	<1 1 × 10^−6 cm/sec	53.8 µg/mL	>30 m	CC1=C(C(=O)Nc2cc(C(=O)O)ccn2)[C@@H](c2ccc(C)cc2Cl)N=C(Nc2nc3ccc(F)cc3o2)N1 [Compound 56, (S)-2-(4-(2-chloro-4-methylphenyl)-2-((6-fluorobenzo[d]oxazol-2-yl)amino)-6-methyl-1,4-dihydropyrimidine-5-carboxamido)isonicotinic acid]
1.09 µM	4.09 µM	10.9 µM	10.9 µM	<1 1 × 10^−6 cm/sec	>87 µg/mL	>30 m	CC1=C(C(=O)Nc2cc(C(=O)O)ccn2)C(c2ccc(N3CCCC3)cc2Cl)N=C(Nc2nc3ccc(F)cc3o2)N1 (centres unmarked) [Compound 57, 2-(4-(2-chloro-4-(pyrrolidin-1-yl)phenyl)-2-((6-fluorobenzo[d]oxazol-2-yl)amino)-6-methyl-1,4-dihydropyrimidine-5-carboxamido)isonicotinic acid]
1.22 µM		12.2 µM	12.2 µM	1.35 1 × 10^−6 cm/sec	1.92 µg/mL	>30 m	CC1=C(C(=O)Nc2cc(C(=O)O)ccn2)C(c2ccc(N3CCCCC3)cc2Cl)N=C(Nc2nc3ccc(F)cc3o2)N1 (centres unmarked) [Compound 58, 2-(4-(2-chloro-4-(piperidin-1-yl)phenyl)-2-((6-fluorobenzo[d]oxazol-2-yl)amino)-6-methyl-1,4-dihydropyrimidine-5-carboxamido)isonicotinic acid]
	0.43 µM	3.85 µM	3.85 µM	26.5 1 × 10^−6 cm/sec	>89 µg/mL	>30 m	CC1=C(C(=O)Nc2cc(C(=O)O)ccn2)C(c2ccc(N3CCOCC3)cc2Cl)N=C(Nc2nc3ccc(F)cc3o2)N1 (centres unmarked) [Compound 59, 2-(4-(2-chloro-4-morpholinphenyl)-2-((6-fluorobenzo[d]oxazol-2-yl)amino)-6-methyl-1,4-dihydropyrimidine-5-carboxamido)isonicotinic acid]
	0.77 µM		3.43 µM	<1 1 × 10^−6 cm/sec	>87 µg/mL	>30 m	CC1=C(C(=O)Nc2cc(C(=O)O)ccn2)C(c2ccc(-n3cccn3)cc2Cl)N=C(Nc2nc3ccc(F)cc3o2)N1 (centres unmarked) [Compound 60, 2-(4-(2-chloro-4-(1H-pyrazol-1-yl)phenyl)-2-((6-fluorobenzo[d]oxazol-2-yl)amino)-6-methyl-1,4-dihydropyrimidine-5-carboxamido)isonicotinic acid]
1.53 µM	1.53 µM	10.9 µM	10.9 µM	<1 1 × 10^−6 cm/sec	19.4 µg/mL	>30 m	CC1=C(C(=O)Nc2cc(C(=O)O)ccn2)C(c2ccc(C(F)(F)F)cc2Cl)N=C(Nc2nc3ccc(F)cc3o2)N1 (centres unmarked) [Compound 61, 2-(4-(2-chloro-4-(trifluoromethyl)phenyl)-2-((6-fluorobenzo[d]oxazol-2-yl)amino)-6-methyl-1,4-dihydropyrimidine-5-carboxamido)isonicotinic acid]
1.09 µM	1.09 µM	3.85 µM	3.85 µM	<1.7 1 × 10^−6 cm/sec	2.4 µg/mL	>30 m	CC1=C(C(=O)Nc2cc(C(=O)O)ccn2)C(c2ccc(Br)cc2Cl)N=C(Nc2nc3ccc(F)cc3o2)N1 (centres unmarked) [Compound 62, 2-(4-(4-bromo-2-chlorophenyl)-2-((6-fluorobenzo[d]oxazol-2-yl)amino)-6-methyl-1,4-dihydropyrimidine-5-carboxamido)isonicotinic acid]
	19.3 µM		34.3 µM	<1 1 × 10^−6 cm/sec	>84 µg/mL	>30 m	CC1=C(C(=O)Nc2cc(C(=O)O)ccn2)C(c2cccc([N+](=O)[O-])c2Cl)N=C(Nc2nc3ccc(F)cc3o2)N1 (centres unmarked) [Compound 63, 2-(4-(2-chloro-3-nitrophenyl)-2-((6-fluorobenzo[d]oxazol-2-yl)amino)-6-methyl-1,4-dihydropyrimidine-5-carboxamido)isonicotinic acid]
3.06 µM	3.06 µM	17.2 µM	17.2 µM	<1 1 × 10^−6 cm/sec	>79 µg/mL	>30 m	CC1=C(C(=O)Nc2cc(C(=O)O)ccn2)C(c2cccc(N)c2Cl)N=C(Nc2nc3ccc(F)cc3o2)N1 (centres unmarked) [Compound 64, 2-(4-(3-amino-2-chlorophenyl)-2-((6-fluorobenzo[d]oxazol-2-yl)amino)-6-methyl-1,4-dihydropyrimidine-5-carboxamido)isonicotinic acid]
0.61 µM	0.61 µM	3.85 µM	3.85 µM	<1 1 × 10^−6 cm/sec	>81 µg/mL	>30 m	CC1=C(C(=O)Nc2cc(C(=O)O)ccn2)C(c2ccc(C#N)cc2Cl)N=C(Nc2nc3ccc(F)cc3o2)N1 (centres unmarked) [Compound 66, 2-(4-(2-chloro-4-cyanophenyl)-2-((6-fluorobenzo[d]oxazol-2-yl)amino)-6-methyl-1,4-dihydropyrimidine-5-carboxamido)isonicotinic acid]
0.69 µM	0.69 µM	3.85 µM	3.85 µM	<1 1 × 10^−6 cm/sec	11.3 µg/mL	>30 m	CCOc1ccc(C2N=C(Nc3nc4ccc(F)cc4o3)NC(C)=C2C(=O)Nc2cc(C(=O)O)ccn2)c(Cl)c1 (centres unmarked) [Compound 67, 2-(4-(2-chloro-4-ethoxyphenyl)-2-((6-fluorobenzo[d]oxazol-2-yl)amino)-6-methyl-1,4-dihydropyrimidine-5-carboxamido)isonicotinic acid]
7.69 µM	7.69 µM	21.7 µM	21.7 µM	6.6 1 × 10^−6 cm/sec	8.1 µg/mL	>30 m	CC1=C(C(=O)Nc2cc(C(=O)O)ccn2)C(c2ccc(-c3ccc(C(F)(F)F)cc3)cc2Cl)N=C(Nc2nc3ccc(F)cc3o2)N1 (centres unmarked) [Compound 68, 2-(4-(3-chloro-4′-(trifluoromethyl)-[1,1′-biphenyl]-4-yl)-2-((6-fluorobenzo[d]oxazol-2-yl)amino)-6-methyl-1,4-dihydropyrimidine-5-carboxamido)isonicotinic acid]
	0.34 µM	1.22 µM	1.22 µM	<1 1 × 10^−6 cm/sec	>90 µg/mL	>30 m	CC1=C(C(=O)Nc2cc(C(=O)O)ccn2)C(c2ccc(-c3ccc(C)nc3)cc2Cl)N=C(Nc2nc3ccc(F)cc3o2)N1 (centres unmarked) [Compound 69, 2-(4-(2-chloro-4-(6-methylpyridin-3-yl)phenyl)-2-((6-fluorobenzo[d]oxazol-2-yl)amino)-6-methyl-1,4-dihydropyrimidine-5-carboxamido)isonicotinic acid]
1.21 µM	1.21 µM	3.85 µM	3.85 µM	<1 1 × 10^−6 cm/sec	28.6 µg/mL	>30 m	CC1=C(C(=O)Nc2cc(C(=O)O)ccn2)C(c2ccc(-c3ccc(C(F)(F)F)nc3)cc2Cl)N=C(Nc2nc3ccc(F)cc3o2)N1 (centres unmarked) [Compound 70, 2-(4-(2-chloro-4-(6-(trifluoromethyl)pyridin-3-yl)phenyl)-2-((6-fluorobenzo[d]oxazol-2-yl)amino)-6-methyl-1,4-dihydropyrimidine-5-carboxamido)isonicotinic acid]
	0.11 µM	0.69 µM	0.69 µM	<1 1 × 10^−6 cm/sec	>90 µg/mL	>30 m	CC1=C(C(=O)Nc2cc(C(=O)O)ccn2)C(c2ccc(-c3cnc(C)nc3)cc2Cl)N=C(Nc2nc3ccc(F)cc3o2)N1 (centres unmarked) [Compound 71, 2-(4-(2-chloro-4-(2-methylpyrimidin-5-yl)phenyl)-2-((6-fluorobenzo[d]oxazol-2-yl)amino)-6-methyl-1,4-dihydropyrimidine-5-carboxamido)isonicotinic acid]
